Assay results published in PMC11149339, “Necessity for higher teicoplanin doses in older adults: a multicenter prospective observational study in China” (BMC Geriatrics, 2024).

Test: Therapeutic drug monitoring of teicoplanin trough concentration (Cmin) during treatment, LC-MS/MS
Assay type: in vivo, human
Details: for TDM ≤ 7d (teicoplanin trough concentration) / TDM ≥ 15d (teicoplanin trough concentration): median [IQR], LC-MS/MS
Procedure: Teicoplanin (Targocid, Sanofi, Dublin, Ireland) was administered intravenously for 30 min. The prescribed dose regimens were at the discretion of treating physicians, and the recommended regimens were not always followed.
Blood samples (5 mL) were collected from the elbow into ethylenediaminetetraacetic acid-containing Vacutainers® (Becton Dickinson, Milan, Italy) in the morning before teicoplanin administration and after drug withdrawal. Samples were promptly refrigerated and centrifuged at 2500 × g for 10 min before 2 mL of supernatant was preserved at -20 °C for subsequent analysis. Teicoplanin concentrations were determined using liquid chromatography-tandem mass spectrometry. The linear range of the method was 1.0–100.0 mg/L, and the lower limit of quantification was 1.0 mg/L. The relative standard deviation of intra- and inter-batch precision was ≤ 10%.
Teicoplanin concentrations were dynamically monitored. Concentrations at 3, ≤ 7, 8–14, and ≥ 15 days after the first dose and within 2 h of the next scheduled dose were recorded as TDM3d, TDM≤7d, TDM8-14d, and TDM≥15d, respectively. Concentrations at 3, ≤ 7, 8–14, and ≥ 15 days after the last teicoplanin dose (withdrawal) were recorded as TDMw3d, TDMw≤7d, TDMw8-14d, and TDMw≥15d. respectively (Fig. 1a). The Cmin target was ≥ 10 mg/L [6, 7, 23]; a concentration < 10 mg/L was considered suboptimal. Average TDM (TDMa) was defined as the mean Cmin after 3 days of treatment.

[1] = ≤ 7 days after first dose, LR-A + MR-A
[2] = ≤ 7 days after first dose, LR-B + MR-A
[3] = ≤ 7 days after first dose, LR-B + MR-B
[4] = ≤ 7 days after first dose, LR-C + MR-B
[5] = ≤ 7 days after first dose, LR-C + MR-C
[6] = ≥ 15 days after first dose, LR-A + MR-A
[7] = ≥ 15 days after first dose, LR-B + MR-A
[8] = ≥ 15 days after first dose, LR-B + MR-B
[9] = ≥ 15 days after first dose, LR-C + MR-B

target concentration achievement rate (≥ 10 mg/L) (TDM8-14d, LR-C + MR-C regimen): 100%
target concentration achievement rate (≥ 10 mg/L) (TDM3d, LR-A + MR-A regimen): 0%
target concentration achievement rate (≥ 10 mg/L) (TDM3d, LR-B + MR-A regimen): 10.5%
target concentration achievement rate (≥ 10 mg/L) (TDM3d, LR-B + MR-B regimen): 50.0%
target concentration achievement rate (≥ 10 mg/L) (TDM3d, LR-C + MR-B regimen): 62.5%
target concentration achievement rate (≥ 10 mg/L) (TDM3d, LR-C + MR-C regimen): 78.6%
target concentration achievement rate (≥ 10 mg/L) (TDM≤7d, LR-A + MR-A regimen): 18.3%
target concentration achievement rate (≥ 10 mg/L) (TDM≤7d, LR-B + MR-A regimen): 24.1%
target concentration achievement rate (≥ 10 mg/L) (TDM≤7d, LR-B + MR-B regimen): 57.2%
target concentration achievement rate (≥ 10 mg/L) (TDM≤7d, LR-C + MR-B regimen): 56.2%
target concentration achievement rate (≥ 10 mg/L) (TDM≤7d, LR-C + MR-C regimen): 85.7%
target concentration achievement rate (≥ 10 mg/L) (TDM≥15d, LR-A + MR-A regimen): 77.8%
target concentration achievement rate (≥ 10 mg/L) (TDM≥15d, LR-B + MR-A regimen): 84.6%
target concentration achievement rate (≥ 10 mg/L) (TDM≥15d, LR-B + MR-B regimen): 100%
target concentration achievement rate (≥ 10 mg/L) (TDM≥15d, LR-C + MR-B regimen): 100%
patients achieving therapeutic concentrations (after 14 days of administration, all patients): more than 80%
patients with TDM 10–20 mg/L ≤ 7d, N (%) [1]: 6(12.2)
patients with TDM < 10 mg/L ≤ 7d, N (%) [1]: 40(81.7)
patients with TDM > 20 mg/L ≤ 7d, N (%) [1]: 3(6.1)
TDM ≤ 7d (teicoplanin trough concentration) (≤ 7 days after first dose, LR-A + MR-A (200 mg once daily, then 200 mg once daily)): 6.4[4.7,8.2] mg/L
patients with TDM 10–20 mg/L ≤ 7d, N (%) [2]: 10(18.5)
patients with TDM < 10 mg/L ≤ 7d, N (%) [2]: 41(75.9)
patients with TDM > 20 mg/L ≤ 7d, N (%) [2]: 3(5.6)
TDM ≤ 7d (teicoplanin trough concentration) (≤ 7 days after first dose, LR-B + MR-A (400 mg once daily, then 200 mg once daily)): 7.2[5.5,10.0] mg/L
patients with TDM 10–20 mg/L ≤ 7d, N (%) [3]: 2(28.6)
patients with TDM < 10 mg/L ≤ 7d, N (%) [3]: 3(42.8)
patients with TDM > 20 mg/L ≤ 7d, N (%) [3]: 2(28.6)
TDM ≤ 7d (teicoplanin trough concentration) (≤ 7 days after first dose, LR-B + MR-B (400 mg once daily, then 400 mg once daily)): 12.42[8.3,22.0] mg/L
patients with TDM 10–20 mg/L ≤ 7d, N (%) [4]: 9(56.2)
patients with TDM < 10 mg/L ≤ 7d, N (%) [4]: 7(43.8)
patients with TDM > 20 mg/L ≤ 7d, N (%) [4]: 0
TDM ≤ 7d (teicoplanin trough concentration) (≤ 7 days after first dose, LR-C + MR-B (400 mg at 12-h intervals, then 400 mg once daily)): 11.0[7.0,12.6] mg/L
patients with TDM 10–20 mg/L ≤ 7d, N (%) [5]: 8(57.1)
patients with TDM < 10 mg/L ≤ 7d, N (%) [5]: 2(14.3)
patients with TDM > 20 mg/L ≤ 7d, N (%) [5]: 4(28.6)
TDM ≤ 7d (teicoplanin trough concentration) (≤ 7 days after first dose, LR-C + MR-C (400 mg at 12-h intervals, then 400 mg twice daily)): 14.4[12.0,21.2] mg/L
TDM ≤ 7d (teicoplanin trough concentration) (≤ 7 days after first dose, all patients (N = 204), iv): 7.6[5.6,12.2] mg/L
patients having suboptimal concentrations (< 10 mg/L), TDM≤7d (≤ 7 days after first dose, all patients, 93 patients): 66.4%
patients with TDM 10–20 mg/L ≥ 15d, N (%) [6]: 16(59.3)
patients with TDM < 10 mg/L ≥ 15d, N (%) [6]: 6(22.2)
patients with TDM > 20 mg/L ≥ 15d, N (%) [6]: 5(18.5)
TDM ≥ 15d (teicoplanin trough concentration) (≥ 15 days after first dose, LR-A + MR-A (200 mg once daily, then 200 mg once daily)): 12.7[10.1,17.4] mg/L
patients with TDM 10–20 mg/L ≥ 15d, N (%) [7]: 15(57.7)
patients with TDM < 10 mg/L ≥ 15d, N (%) [7]: 4(15.4)
patients with TDM > 20 mg/L ≥ 15d, N (%) [7]: 7(26.9)
TDM ≥ 15d (teicoplanin trough concentration) (≥ 15 days after first dose, LR-B + MR-A (400 mg once daily, then 200 mg once daily)): 15.7[11.9,22.0] mg/L
patients with TDM 10–20 mg/L ≥ 15d, N (%) [8]: 1(50.0)
patients with TDM < 10 mg/L ≥ 15d, N (%) [8]: 0
patients with TDM > 20 mg/L ≥ 15d, N (%) [8]: 1(50.0)
TDM ≥ 15d (teicoplanin trough concentration) (≥ 15 days after first dose, LR-B + MR-B (400 mg once daily, then 400 mg once daily)): 20.3[13.8,20.4] mg/L
patients with TDM 10–20 mg/L ≥ 15d, N (%) [9]: 1(33.3)
patients with TDM < 10 mg/L ≥ 15d, N (%) [9]: 0
patients with TDM > 20 mg/L ≥ 15d, N (%) [9]: 2(66.7)
TDM ≥ 15d (teicoplanin trough concentration) (≥ 15 days after first dose, LR-C + MR-B (400 mg at 12-h intervals, then 400 mg once daily)): 23.0[19.4,28.6] mg/L
TDM ≥ 15d (teicoplanin trough concentration) (≥ 15 days after first dose, all patients (N = 204), iv): 15.8[11.0,21.8] mg/L
patients having suboptimal concentrations (< 10 mg/L), TDM≥15d (≥ 15 days after first dose, all patients, 10 patients): 17.0%
Substance: Teicoplanin
